Format in all cases: physicochemical
A short description of series [1]: Stability of anhydrous DHEA-S and DHEA-S dihydrate with and without lactose (HPLC, DHEA formed). From the text: These conditions were used to stress the formulation in order to predict its long-term stability results.
The primary degradant is dehydroepiandrosterone or DHEA. […] The materials on accelerated storage become more cohesive with time as evidenced by clumping during sample weighing for chemical analysis. […] This is a considerable disadvantage since lactose is the most commonly used inhalation excipient for dry powder formulations. Continuing with the virtually anhydrous form would mean limiting formulations to neat powder or undertaking more comprehensive safety studies to use a novel excipient.

A short description of series [2]: Short-term solution stability. The settings on record: 7.5 mg/mL in 0.12% NaCl, room temperature. The protocol: Stability Studies. […] Aliquots of this solution are filled into clear glass vials and stored at room temperature (24-26° C.) and at 40° C. The samples are checked daily for DHEA-S content, DHEA content, and appearance. For each time point, duplicate samples are withdrawn and diluted from each vial.

Another series in a line: Solubility of DHEA-S. The settings on record: 20 mM Na+ (0.12% NaCl), Ksp of 1316 mM^2, 15° C. From the text:
Inhalation of pure water can produce a cough stimulus.

Where “and” joins values, the source holds several entries; their conditions need not be identical. Equal values may be shown once.

Consider `CC12CCC3C(CC=C4CC(OS(=O)(=O)[O-])CCC43C)C1CCC2=O.[Na+]` (stereo not shown) [DHEA-S Dihydrate, dehydroepiandrosterone sodium sulfate dihydrate], for which the water content in series [1] (after accelerated storage, one week at 50° C.) is reported as 8.66%; in series [1] (starting value), 8.8%.

With `C[C@]12CC[C@H](OS(=O)(=O)[O-])CC1=CC[C@@H]1[C@@H]2CC[C@]2(C)C(=O)CC[C@@H]12.[Na+]` [DHEA-S, sodium dehydroepiandrostenone sulfate], in series [2], the solution stability result is “stable for at least one day”. Further, the “calculated DHEA-S concentration (solubility)” value in the series “Solubility of DHEA-S” is 27.5 mM and 10.7 mg/mL.

(Values after patent US7405207B2, “Nebulizer formulations of dehydroepiandrosterone and methods of treating asthma or chronic obstructive pulmonary disease using compositions thereof” (Epigenesis Pharmaceuticals, Inc., priority 2002, dated 2008).)
